In patent US12570612B2, “Substituted nitrogen heterocyclic compound and anesthetic effect thereof” (priority 2019, dated 2026):
Like-named read-outs stand apart in the source and are kept apart here.

Columns and labels:
Format in all cases: in vivo
[1] = tested on: Sprague-Dawley rats; assay: Pharmacological effect and adverse reactions under the equivalent dose (2ED50), Group C compounds; conditions: for Righting reflex duration / Sedation duration / Onset time: 2ED50, tail vein, rats, n=8; for Onset time: unit s; for Adverse reaction: Convulsions / Adverse reaction: Cough, broken-winded / Adverse reaction: Euphoria / Adverse reaction: Red urine / Adverse reaction: Slower breathing, Tetany convulsion / Adverse reaction: Systemic stiffness, Convulsions, Opisthotonus / Adverse reaction: Tongue stretching / Adverse reaction: Tremor / Adverse reaction: the four limbs rigidity: equivalent dose (2ED50), number of rats of n = 8
Description: Evaluation index: onset time: from the completion of drug injection to the disappearance of forepaw righting reflex in rats; Duration of anesthesia: the time from the disappearance of rat forepaw righting reflex to the recovery of rat forepaw righting reflex; Recovery time of anesthesia: the time from the […] to complete recovery;

[2] = tested on: Sprague-Dawley rats; conditions: tail vein
[3] = tested on: Sprague-Dawley rats; assay: animal or person; conditions: rats; for ED50: LORR, up and down method, tail vein, class symbols
Description: Evaluating indicator: The end point of anesthesia: LORR was used as the end point of anesthesia; General anesthesia effect: the disappearance of forepaw righting reflex in rats lasting for 30 seconds is taken as the index of general anesthesia effect; Anesthesia recovery index: the recovery of rat forepaw righting reflex was used as the index of anesthesia recovery.

[4] = Rattus norvegicus, read-out: ED50

| Compound | Righting reflex duration [1] [min] | Sedation duration [1] [min] | Onset time [1] [s] | Adverse reaction: Convulsions [1] | Adverse reaction: Cough, broken-winded [1] | Adverse reaction: Euphoria [1] | Adverse reaction: Red urine [1] | Adverse reaction: Slower breathing, Tetany convulsion [1] | Adverse reaction: Systemic stiffness, Convulsions, Opisthotonus [1] | Adverse reaction: Tongue stretching [1] | Adverse reaction: Tremor [1] | Adverse reaction: the four limbs rigidity [1] | Minimal lethal dose [2] [mg/kg] | ED50 [3, 4] [mg/kg] | Approximate therapeutic index [3] | ED50 [3] |
| --- | --- | --- | --- | --- | --- | --- | --- | --- | --- | --- | --- | --- | --- | --- | --- | --- |
| C/C=C\C(=O)c1cncn1[C@H](C)c1ccccc1 [Compound C55] | 1.83 ± 0.30 | 6.26 ± 2.45 | <30 | 0 | 0 | 0 | 8 | 0 | 7 | 0 | 0 | 0 | >13.61 | 2 to 10 | >16.6 |  |
| CC(=O)COCC(=O)c1cncn1[C@H](C)c1ccccc1 [Compound C51] | 2.89 ± 0.68 | 4.62 ± 1.02 | <30 | 0 | 0 | 0 | 8 | 0 | 0 | 0 | 2 | 0 | >12.5 | 1 to 2 | >8.3 |  |
| C[C@H](c1ccccc1)n1cnc(F)c1C(=O)COCC1CCC1 [Compound C70] | 1.35 ± 0.61 | 5.30 ± 1.14 | <30 | 0 | 0 | 4 | 8 | 0 | 0 | 0 | 0 | 6 | >6.4 |  | >18.2 | + (+ indicates that the measured ED50 is in the range of 0.04-0.50 mg/kg (including 0.04 and 0.50 mg/kg)) |
| C[C@H](c1ccccc1)n1cncc1C(=O)COC1CCC1 [Compound C28] | 1.91 ± 0.65 | 5.63 ± 0.62 | <30 | 0 | 0 | 0 | 8 | 0 | 0 | 0 | 1 | 0 | >11.8 |  | >2.4 |  |
| C#CCOCC(=O)c1c(F)ncn1[C@H](C)c1ccccc1 [Compound C73] | 1.24 ± 0.56 | 6.76 ± 1.49 | <30 | 0 | 0 | 0 | 8 | 0 | 2 | 0 | 0 | 1 | >4.0 | 0.04 to 0.5 | >23.4 |  |
